Broadly, the IC50 is the concentration at which inhibition is half-maximal. High values mean a need for much substance, low ones inhibition by little substance.

For the assay, the target named is Human immunodeficiency virus type 1 integrase (Human immunodeficiency virus 1, UniProt Q7ZJM1). The assay can be described thus: Inhibitory activity against HIV-1 integrase.
Chain of Human immunodeficiency virus type 1 integrase (Q7ZJM1 whole entry): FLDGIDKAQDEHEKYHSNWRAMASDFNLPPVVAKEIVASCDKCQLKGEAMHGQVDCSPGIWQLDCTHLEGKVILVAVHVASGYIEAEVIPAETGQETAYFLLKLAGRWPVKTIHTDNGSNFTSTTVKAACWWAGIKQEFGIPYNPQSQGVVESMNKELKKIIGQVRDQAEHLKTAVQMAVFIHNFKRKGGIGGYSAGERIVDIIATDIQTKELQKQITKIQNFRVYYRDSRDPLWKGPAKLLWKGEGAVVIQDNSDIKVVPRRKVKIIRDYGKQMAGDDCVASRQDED
For the compound `O=C(O)C(Cc1ccc(O)c(O)c1)C(Cc1ccc(O)c(O)c1)C(=O)O` (stereo not given), the IC50 is 19.1 µM. This lies in the double-digit micromolar range.

Regarding `COc1ccc(CC(C(=O)O)C(Cc2ccc(OC)c(OC)c2)C(=O)O)cc1OC` (stereo not given), the concentration for half-maximal inhibition (IC50) was above 150 µM.

`O=C1NC(=O)C(c2ccc(O)c(O)c2)=C1c1ccc(O)c(O)c1`: the half-inhibitory concentration (IC50) came out at 15.5 µM.

Consider `COc1ccc(C2=C(c3ccc(OC)c(OC)c3)C(=O)NC2=O)cc1OC`, for which the IC50 is above 150 µM.

`O=C1OC(=O)C(c2ccc(O)c(O)c2)=C1c1ccc(O)c(O)c1` registered a half-inhibitory concentration (IC50) of 3.8 µM.

`COc1ccc(C(C(=O)O)C(C(=O)O)c2ccc(OC)c(OC)c2)cc1OC` (stereo not given) returned an IC50 above 150 µM.

`O=C(O)c1[nH]c(C(=O)O)c(-c2ccc(O)c(O)c2)c1-c1ccc(O)c(O)c1` displayed an IC50 of 5.3 µM. That is a single-digit micromolar value.

`COc1ccc(C2=C(c3ccc(OC)c(OC)c3)C(=O)OC2=O)cc1OC`: the half-inhibitory concentration (IC50) was above 150 µM.

`COc1ccc(-c2c(C(=O)O)[nH]c(C(=O)O)c2-c2ccc(OC)c(OC)c2)cc1OC` gave an IC50 above 150 µM.

The compound `O=C(O)C(c1ccc(O)c(O)c1)C(C(=O)O)c1ccc(O)c(O)c1` (stereo not given) yielded an IC50 of 23.6 µM.

The values are drawn from ChEMBL document CHEMBL1136476, “Catechol-substituted L-chicoric acid analogues as HIV integrase inhibitors” (Bioorg Med Chem Lett, 2003).
